Data: PubChem BioAssay AID248 (DTP/NCI, 2004)
“And” between values parts separate entries of the source, which are not always exact repeats. Equal values may be shown once. Inconclusive results and toxic doses are left out. Cut-off read from the data, not from the text of the source: active = T/C of 150% or more; inactive = T/C below 125%.

System: L1210 leukemia ip in BDF1 mice, survival T/C
Experiment: NCI In Vivo Anticancer Drug Screen. Data for tumor model L1210 Leukemia (intraperitoneal) in B6D2F1 (BDF1) mice
Conditions: endpoint: mean survival time, higher = longer survival
In short: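 Read-out is survival time, reported as the treated-group measurement over the vehicle-control measurement.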

[1] = dose: 25.0 mg/kg/injection, schedule: Q01DX009 (ip), vehicle: saline with Tween-80
[2] = dose: 200.0 mg/kg/injection, schedule: Q04DX003 (ip), vehicle: Klucel (hydroxypropylcellulose) (HPC)
[3] = dose: 400.0 mg/kg/injection, schedule: Q04DX003 (ip), vehicle: Klucel (hydroxypropylcellulose) (HPC)
[4] = dose: 100.0 mg/kg/injection, schedule: Q04DX003 (ip), vehicle: saline
[5] = dose: 200.0 mg/kg/injection, schedule: Q04DX003 (ip), vehicle: saline
[6] = dose: 400.0 mg/kg/injection, schedule: Q04DX003 (ip), vehicle: saline
[7] = dose: 100.0 mg/kg/injection, schedule: Q04DX002 (ip), vehicle: Klucel (hydroxypropylcellulose) (HPC)
[8] = dose: 200.0 mg/kg/injection, schedule: Q04DX002 (ip), vehicle: Klucel (hydroxypropylcellulose) (HPC)
[9] = dose: 400.0 mg/kg/injection, schedule: Q04DX002 (ip), vehicle: Klucel (hydroxypropylcellulose) (HPC)
[10] = dose: 100.0 mg/kg/injection, schedule: Q04DX003 (ip), vehicle: saline with Tween-80
[11] = dose: 100.0 mg/kg/injection, schedule: Q04DX003 (ip), vehicle: Klucel (hydroxypropylcellulose) (HPC)
[12] = dose: 100.0 mg/kg/injection, schedule: Q01DX009 (ip), vehicle: saline with Tween-80
[13] = dose: 200.0 mg/kg/injection, schedule: Q01DX009 (ip), vehicle: saline with Tween-80
[14] = dose: 400.0 mg/kg/injection, schedule: Q01DX009 (ip), vehicle: saline with Tween-80

Measured: T/C

COc1cc2c(c(OC)c1OC)-c1cc(I)c(O)cc1[C@@H](NC(C)=O)CC2
inactive: dose: 8.0 mg/kg/injection, schedule: Q01DX Z (ip), vehicle: carboxymethylcellulose (CMC) 104 % of control | dose: 11.0 mg/kg/injection, schedule: Q01DX009 (ip), vehicle: saline with Tween-80 114 % of control | dose: 12.0 mg/kg/injection, schedule: Q01DX Z (ip), vehicle: carboxymethylcellulose (CMC) 109 % of control | dose: 16.5 mg/kg/injection, schedule: Q01DX009 (ip), vehicle: saline with Tween-80 115 % of control | dose: 18.0 mg/kg/injection, schedule: Q01DX Z (ip), vehicle: carboxymethylcellulose (CMC) 119 % of control | [1] 110 % of control | dose: 28.0 mg/kg/injection, schedule: Q01DX Z (ip), vehicle: carboxymethylcellulose (CMC) 118 % of control | dose: 28.0 mg/kg/injection, schedule: Q01DX Z (ip), vehicle: saline 123 % of control | dose: 40.0 mg/kg/injection, schedule: Q01DX015 (ip), vehicle: carboxymethylcellulose (CMC) 104 % of control | dose: 44.0 mg/kg/injection, schedule: Q04DX003 (ip), vehicle: saline sonified 100 % of control | dose: 45.0 mg/kg/injection, schedule: Q01DX Z (ip), vehicle: saline 122 % of control | dose: 50.0 mg/kg/injection, schedule: Q01DX001 (ip), vehicle: carboxymethylcellulose (CMC) 124 % of control | dose: 65.0 mg/kg/injection, schedule: Q01DX Z (ip), vehicle: saline 105 % of control | dose: 66.0 mg/kg/injection, schedule: Q04DX003 (ip), vehicle: saline sonified 107 % of control | dose: 100.0 mg/kg/injection, schedule: Q01DX001 (ip), vehicle: carboxymethylcellulose (CMC) 120 % of control | dose: 100.0 mg/kg/injection, schedule: Q01DX009 (ip), vehicle: saline sonified 124 % of control | dose: 100.0 mg/kg/injection, schedule: Q01DX Z (ip), vehicle: carboxymethylcellulose (CMC) 122 % of control | dose: 100.0 mg/kg/injection, schedule: Q04DX003 (ip), vehicle: saline sonified 108 % of control | dose: 150.0 mg/kg/injection, schedule: Q04DX003 (ip), vehicle: saline sonified 124 % of control | [2] 111 % of control | [3] 96 % of control
active: dose: 400.0 mg/kg/injection, schedule: Q01DX009 (ip), vehicle: saline sonified 165 % of control

CC(C)C1=CC2=CCC3C(C)(CN)CCCC3(C)C2CC1CCN (centres undefined)
inactive: dose: 1.25 mg/kg/injection, schedule: Q04DX003 (ip), vehicle: saline 100 % of control | dose: 2.5 mg/kg/injection, schedule: Q04DX003 (ip), vehicle: saline 108 % of control | dose: 5.0 mg/kg/injection, schedule: Q04DX003 (ip), vehicle: saline with Tween-80 96 % of control | dose: 5.0 mg/kg/injection, schedule: Q04DX003 (ip), vehicle: saline 101 % of control

O=C(N/N=C\c1c(Cl)cccc1Cl)N/N=C/c1c(Cl)cccc1Cl
inactive: dose: 100.0 mg/kg/injection, schedule: Q04DX002 (ip), vehicle: saline with Tween-80 89 % of control | dose: 200.0 mg/kg/injection, schedule: Q04DX002 (ip), vehicle: saline with Tween-80 99 % of control | dose: 400.0 mg/kg/injection, schedule: Q04DX002 (ip), vehicle: saline with Tween-80 95 % of control

C[N+](C)(CCO)CC(O)c1ccc(C(O)C[N+](C)(C)CCO)cc1 (centres undefined)
inactive: dose: 0.05 mg/kg/injection, schedule: Q04DX003 (ip), vehicle: saline 102 % of control | dose: 0.1 mg/kg/injection, schedule: Q04DX003 (ip), vehicle: saline 104 % of control | dose: 0.2 mg/kg/injection, schedule: Q04DX003 (ip), vehicle: saline 93 % of control

CCC(=O)P(=O)(OC)OC
inactive: [4] 102 % of control | [5] 102 % of control | [6] 95 % of control

O=P(O)(c1ccccc1)c1ccccc1
inactive: [7] 102 % of control and 86 % of control | [8] 93 % of control and 89 % of control | [9] 96 % of control

CC(=O)Nc1ccc(SC(=O)c2ccc(C(Cl)(Cl)Cl)cc2)cc1
inactive: [10] 101 % of control | dose: 200.0 mg/kg/injection, schedule: Q04DX003 (ip), vehicle: saline with Tween-80 98 % of control | dose: 400.0 mg/kg/injection, schedule: Q04DX003 (ip), vehicle: saline with Tween-80 93 % of control

O=C1CCCC(c2ccccc2)C1 (centres undefined)
inactive: dose: 75.0 mg/kg/injection, schedule: Q01DX001 (ip), vehicle: other 95 % of control | dose: 150.0 mg/kg/injection, schedule: Q01DX001 (ip), vehicle: other 92 % of control | dose: 300.0 mg/kg/injection, schedule: Q01DX001 (ip), vehicle: other 95 % of control

O=C(/C=C(\CN1CCCCC1)c1ccccc1)c1ccccc1
inactive: [11] 96 % of control | [3] 96 % of control

C/C=C\c1ccc(OCCOC(=O)Nc2cccc(C(F)(F)F)c2)c(OC)c1
inactive: dose: 50.0 mg/kg/injection, schedule: Q01DX009 (ip), vehicle: saline with Tween-80 102 % of control | [12] 98 % of control and 91 % of control | [13] 95 % of control and 90 % of control | [14] 98 % of control

CCCCOC(OCCCC)C(C)=O
inactive: dose: 100.0 mg/kg/injection, schedule: Q01DX009 (ip), vehicle: Klucel (hydroxypropylcellulose) (HPC) 96 % of control | [11] 113 % of control | dose: 200.0 mg/kg/injection, schedule: Q01DX009 (ip), vehicle: Klucel (hydroxypropylcellulose) (HPC) 96 % of control | [2] 92 % of control | dose: 400.0 mg/kg/injection, schedule: Q01DX009 (ip), vehicle: Klucel (hydroxypropylcellulose) (HPC) 101 % of control | [3] 102 % of control

CC1=C2CC(C(C)(C)O)CCC2(C)CC/C1=N\NC(N)=S (centres undefined)
inactive: [12] 98 % of control | [14] 86 % of control

CCOC1CC2CN(C)C1c1ccccc12 (centres undefined)
inactive: [4] 97 % of control | [5] 97 % of control | [6] 101 % of control

CCOC(=O)C(=N\Nc1ccc(C)c(C)c1)/C(C)=N\NC(N)=S
inactive: dose: 75.0 mg/kg/injection, schedule: Q01DX001 (ip), vehicle: saline 87 % of control | dose: 150.0 mg/kg/injection, schedule: Q01DX001 (ip), vehicle: saline 89 % of control

O=C(N1CCC2(CC1)SSC1(CCN(C(=O)C(F)(F)F)CC1)S2)C(F)(F)F
inactive: [12] 97 % of control | [13] 97 % of control | [14] 95 % of control

O=C(CC(C[N+](=O)[O-])c1ccccc1)c1ccccc1 (centres undefined)
inactive: [7] 96 % of control | [8] 100 % of control | [9] 96 % of control

CCOC(=O)NC(=S)Nc1ncn[nH]1
inactive: [4] 96 % of control | [5] 97 % of control | [6] 103 % of control

CCC(=O)Cc1ccc2[nH]c(C)cc(=O)c2c1
inactive: dose: 100.0 mg/kg/injection, schedule: Q01DX001 (ip), vehicle: saline 96 % of control | dose: 200.0 mg/kg/injection, schedule: Q01DX001 (ip), vehicle: saline 98 % of control | dose: 400.0 mg/kg/injection, schedule: Q01DX001 (ip), vehicle: saline 88 % of control

CC(=O)Nc1ccc2[nH]c(C)cc(=O)c2c1
inactive: dose: 100.0 mg/kg/injection, schedule: Q01DX009 (ip), vehicle: water 98 % of control | dose: 100.0 mg/kg/injection, schedule: Q04DX003 (ip), vehicle: water 110 % of control | dose: 200.0 mg/kg/injection, schedule: Q01DX009 (ip), vehicle: water 96 % of control | dose: 200.0 mg/kg/injection, schedule: Q04DX003 (ip), vehicle: water 110 % of control | dose: 400.0 mg/kg/injection, schedule: Q01DX009 (ip), vehicle: water 100 % of control | dose: 400.0 mg/kg/injection, schedule: Q04DX003 (ip), vehicle: water 107 % of control

CSc1cc(-c2ccccc2)c2ccccc2[n+]1C
inactive: dose: 12.5 mg/kg/injection, schedule: Q04DX003 (ip), vehicle: saline with Tween-80 112 % of control | [1] 116 % of control | dose: 25.0 mg/kg/injection, schedule: Q04DX003 (ip), vehicle: saline with Tween-80 112 % of control | dose: 50.0 mg/kg/injection, schedule: Q04DX003 (ip), vehicle: saline with Tween-80 90 % of control | [10] 94 % of control

CC(=N)Oc1ccccc1
inactive: dose: 75.0 mg/kg/injection, schedule: Q01DX001 (ip), vehicle: Klucel (hydroxypropylcellulose) (HPC) 101 % of control | dose: 150.0 mg/kg/injection, schedule: Q01DX001 (ip), vehicle: Klucel (hydroxypropylcellulose) (HPC) 106 % of control | dose: 300.0 mg/kg/injection, schedule: Q01DX001 (ip), vehicle: Klucel (hydroxypropylcellulose) (HPC) 102 % of control
